Experimental data taken from paper PMC3130141 (Archives of Drug Information, 2011).

Tested on: Japanese patients with advanced solid tumors
Assay: Adverse events by CTCAE version 3.0, Phase I dose-escalation study
Format: in vivo, human
[1] = all doses 10-25 mg, 18 patients

Compound: Cc1ccc(C(=O)N(CCCN)C(c2nc3snc(C)c3c(=O)n2Cc2ccccc2)C(C)C)cc1 (stereo not shown) [AZD4877]
- Anorexia, patients with CTCAE grade ≥3 event (10 mg (N = 3)): 0 N (%)
- Any grade ≥3 event, patients with CTCAE grade ≥3 event (10 mg (N = 3)): 0 N (%)
- Constipation, CTCAE any grade, patients with AEs (10 mg (N = 3)): 1 (33) N (%)
- Constipation, patients with CTCAE grade ≥3 event (10 mg (N = 3)): 0 N (%)
- Diarrhea, CTCAE any grade, patients with AEs (10 mg (N = 3)): 2 (67) N (%)
- Dizziness, CTCAE any grade, patients with AEs (10 mg (N = 3)): 2 (67) N (%)
- Fatigue, CTCAE any grade, patients with AEs (10 mg (N = 3)): 1 (33) N (%)
- Fatigue, patients with CTCAE grade ≥3 event (10 mg (N = 3)): 0 N (%)
- Febrile neutropenia, patients with CTCAE grade ≥3 event (10 mg (N = 3)): 0 N (%)
- Insomnia, CTCAE any grade, patients with AEs (10 mg (N = 3)): 1 (33) N (%)
- Nasopharyngitis, CTCAE any grade, patients with AEs (10 mg (N = 3)): 0 N (%)
- Nausea, CTCAE any grade, patients with AEs (10 mg (N = 3)): 2 (67) N (%)
- Neutropenia, patients with CTCAE grade ≥3 event (10 mg (N = 3)): 0 N (%)
- Pyrexia, CTCAE any grade, patients with AEs (10 mg (N = 3)): 0 N (%)
- Rash, CTCAE any grade, patients with AEs (10 mg (N = 3)): 0 N (%)
- Urinary tract infection, patients with CTCAE grade ≥3 event (10 mg (N = 3)): 0 N (%)
- Anorexia, patients with CTCAE grade ≥3 event (15 mg (N = 3)): 0 N (%)
- Any grade ≥3 event, patients with CTCAE grade ≥3 event (15 mg (N = 3)): 0 N (%)
- Constipation, CTCAE any grade, patients with AEs (15 mg (N = 3)): 0 N (%)
- Constipation, patients with CTCAE grade ≥3 event (15 mg (N = 3)): 0 N (%)
- Diarrhea, CTCAE any grade, patients with AEs (15 mg (N = 3)): 1 (33) N (%)
- Dizziness, CTCAE any grade, patients with AEs (15 mg (N = 3)): 0 N (%)
- Fatigue, CTCAE any grade, patients with AEs (15 mg (N = 3)): 1 (33) N (%)
- Fatigue, patients with CTCAE grade ≥3 event (15 mg (N = 3)): 0 N (%)
- Febrile neutropenia, patients with CTCAE grade ≥3 event (15 mg (N = 3)): 0 N (%)
- Insomnia, CTCAE any grade, patients with AEs (15 mg (N = 3)): 0 N (%)
- Nasopharyngitis, CTCAE any grade, patients with AEs (15 mg (N = 3)): 0 N (%)
- Nausea, CTCAE any grade, patients with AEs (15 mg (N = 3)): 1 (33) N (%)
- Neutropenia, patients with CTCAE grade ≥3 event (15 mg (N = 3)): 0 N (%)
- Pyrexia, CTCAE any grade, patients with AEs (15 mg (N = 3)): 3 (100) N (%)
- Rash, CTCAE any grade, patients with AEs (15 mg (N = 3)): 3 (100) N (%)
- Urinary tract infection, patients with CTCAE grade ≥3 event (15 mg (N = 3)): 0 N (%)
- Anorexia, patients with CTCAE grade ≥3 event (20 mg (N = 6)): 0 N (%)
- Any grade ≥3 event, patients with CTCAE grade ≥3 event (20 mg (N = 6)): 1 (17) N (%)
- Constipation, CTCAE any grade, patients with AEs (20 mg (N = 6)): 1 (17) N (%)
- Constipation, patients with CTCAE grade ≥3 event (20 mg (N = 6)): 0 N (%)
- Diarrhea, CTCAE any grade, patients with AEs (20 mg (N = 6)): 0 N (%)
- Dizziness, CTCAE any grade, patients with AEs (20 mg (N = 6)): 3 (50) N (%)
- Fatigue, CTCAE any grade, patients with AEs (20 mg (N = 6)): 2 (33) N (%)
- Fatigue, patients with CTCAE grade ≥3 event (20 mg (N = 6)): 0 N (%)
- Febrile neutropenia, patients with CTCAE grade ≥3 event (20 mg (N = 6)): 0 N (%)
- Insomnia, CTCAE any grade, patients with AEs (20 mg (N = 6)): 2 (33) N (%)
- Nasopharyngitis, CTCAE any grade, patients with AEs (20 mg (N = 6)): 2 (33) N (%)
- Nausea, CTCAE any grade, patients with AEs (20 mg (N = 6)): 1 (17) N (%)
- Neutropenia, patients with CTCAE grade ≥3 event (20 mg (N = 6)): 1 (17) N (%)
- Pyrexia, CTCAE any grade, patients with AEs (20 mg (N = 6)): 2 (33) N (%)
- Rash, CTCAE any grade, patients with AEs (20 mg (N = 6)): 2 (33) N (%)
- Urinary tract infection, patients with CTCAE grade ≥3 event (20 mg (N = 6)): 0 N (%)
- Patients who withdrew from the study due to an AE (20 mg dose cohort, grade 2 cystitis): one patient
- Anorexia, patients with CTCAE grade ≥3 event (25 mg (N = 6)): 1 (17) N (%)
- Any grade ≥3 event, patients with CTCAE grade ≥3 event (25 mg (N = 6)): 2 (33) N (%)
- Constipation, CTCAE any grade, patients with AEs (25 mg (N = 6)): 2 (33) N (%)
- Constipation, patients with CTCAE grade ≥3 event (25 mg (N = 6)): 1 (17) N (%)
- Diarrhea, CTCAE any grade, patients with AEs (25 mg (N = 6)): 2 (33) N (%)
- Dizziness, CTCAE any grade, patients with AEs (25 mg (N = 6)): 0 N (%)
- Fatigue, CTCAE any grade, patients with AEs (25 mg (N = 6)): 3 (50) N (%)
- Fatigue, patients with CTCAE grade ≥3 event (25 mg (N = 6)): 1 (17) N (%)
- Febrile neutropenia, patients with CTCAE grade ≥3 event (25 mg (N = 6)): 1 (17) N (%)
- Insomnia, CTCAE any grade, patients with AEs (25 mg (N = 6)): 1 (17) N (%)
- Nasopharyngitis, CTCAE any grade, patients with AEs (25 mg (N = 6)): 2 (33) N (%)
- Nausea, CTCAE any grade, patients with AEs (25 mg (N = 6)): 3 (50) N (%)
- Neutropenia, patients with CTCAE grade ≥3 event (25 mg (N = 6)): 0 N (%)
- Pyrexia, CTCAE any grade, patients with AEs (25 mg (N = 6)): 1 (17) N (%)
- Rash, CTCAE any grade, patients with AEs (25 mg (N = 6)): 0 N (%)
- Urinary tract infection, patients with CTCAE grade ≥3 event (25 mg (N = 6)): 1 (17) N (%)
- Anorexia, patients with CTCAE grade ≥3 event (Total, all doses (N = 18)): 1 (6) N (%)
- Any grade ≥3 event, patients with CTCAE grade ≥3 event (Total, all doses (N = 18)): 3 (17) N (%)
- Constipation, CTCAE any grade, patients with AEs (Total, all doses (N = 18)): 4 (22) N (%)
- Constipation, patients with CTCAE grade ≥3 event (Total, all doses (N = 18)): 1 (6) N (%)
- Diarrhea, CTCAE any grade, patients with AEs (Total, all doses (N = 18)): 5 (28) N (%)
- Dizziness, CTCAE any grade, patients with AEs (Total, all doses (N = 18)): 5 (28) N (%)
- Fatigue, CTCAE any grade, patients with AEs (Total, all doses (N = 18)): 7 (39) N (%)
- Fatigue, patients with CTCAE grade ≥3 event (Total, all doses (N = 18)): 1 (6) N (%)
- Febrile neutropenia, patients with CTCAE grade ≥3 event (Total, all doses (N = 18)): 1 (6) N (%)
- Insomnia, CTCAE any grade, patients with AEs (Total, all doses (N = 18)): 4 (22) N (%)
- Nasopharyngitis, CTCAE any grade, patients with AEs (Total, all doses (N = 18)): 4 (22) N (%)
- Nausea, CTCAE any grade, patients with AEs (Total, all doses (N = 18)): 7 (39) N (%)
- Neutropenia, patients with CTCAE grade ≥3 event (Total, all doses (N = 18)): 1 (6) N (%)
- Pyrexia, CTCAE any grade, patients with AEs (Total, all doses (N = 18)): 6 (33) N (%)
- Rash, CTCAE any grade, patients with AEs (Total, all doses (N = 18)): 5 (28) N (%)
- Urinary tract infection, patients with CTCAE grade ≥3 event (Total, all doses (N = 18)): 1 (6) N (%)
- Deaths during the study (all doses 10-25 mg): no deaths
- Patients reporting fatigue (AE) [1]: 39%
- Patients reporting nausea (AE) [1]: 39%
- Patients reporting pyrexia (AE) [1]: 33%
- Patients who experienced at least one AE [1]: All patients
- Patients who experienced CTCAE grade ≥3 events (all doses, 18 patients, one in 20 mg, two in 25 mg cohort): Three
- Tolerability (doses up to 25 mg weekly): generally well tolerated
